The source of these data is patent publication US20090130707A1, “Methods of reducing the inhibitory effect of a redox active metal ion on the enzymatic hydrolysis of cellulosic material” (priority 2007, published 2009).

The subject of data set [1] is Cellulolytic Enzyme Composition #1. As to the kind of experiment: mini-scale PCS hydrolysis by Cellulolytic Enzyme Composition #1. It counts as biochemical, Trichoderma reesei. Particulars: for cellobiose level in the hydrolysis products versus absence of the compounds: PCS hydrolysis; for Effect of chelator on enzyme in the absence of FeSO4: PCS hydrolysis (FIGS. 23A-23D). As to the method: The effect of various salts (FeSO4, FeCl2, NaCl, Na2SO4, MnSO4, MnCl2) was determined in the hydrolysis of PCS by Cellulolytic Enzyme Composition #2. The PCS hydrolysis was performed in duplicate in capped 1.7 ml EPPENDORF® tubes (“mini-scale”) containing 1 ml suspensions of 43.4 g of PCS (dry weight) per liter, 10 mM salts in 50 mM sodium acetate pH 5. Cellulolytic Enzyme Composition #2 was added at 0.25 g per liter. Reactions without the addition of the salt served as controls. The capped tubes were incubated at 50° C. in an INNOVA® 4080 incubator shaker (New Brunswick Scientific Co., Inc., Edison, N.J., USA) at 150 rpm.
(§1) Aliquots of the suspensions, sampled over time, were filtered by centrifugation using a 0.45 μm MULTISCREEN® HV membrane (Millipore, Billerica, Mass., USA) at 2000 rpm for 15 minutes using a SORVALL® RT7 centrifuge (Thermo Fisher Scientific, Waltham, Mass., USA). When not used immediately, the filtered sugary aliquots were frozen at −20° C. Sugar concentrations of the samples diluted in 0.005 M H2SO4 were measured after elution from a 4.6×250 mm AMINEX® HPX-87H column (Bio-Rad, Hercules, Calif., USA) by 0.005 M H2SO4 at a flow rate of 0.4 ml/minute at 65° C. with quantitation by integration of glucose and cellobiose using refractive index detection (CHEMSTATION®, AGILENT® 1100 HPLC, Agilent Technologies, Santa Clara, Calif., USA) calibrated with standards of glucose and cellobiose. The resultant equivalents were used to calculate the percentage of cellulose conversion for each reaction.
Example 30 was repeated with both Cellulolytic Enzyme Composition #1 and Cellulolytic Enzyme Composition #2. Soluble reducing sugars were measured by HPLC as described in Example 30. Reactions without the addition of FeSO4 served as controls.
The hydrolysis was performed in a series of duplicate “mini-scale” hydrolysis reactions according to the procedure described in Example 30.

The test system is the same in data set [2]. Nature of the data set: mini-plate-scale AVICEL hydrolysis by Cellulolytic Enzyme Composition #1. It counts as biochemical, Trichoderma reesei. Particulars: 10 mM, 25 g AVICEL and 0.25 g enzyme per liter, pH 5, 50° C. As to the method: (§2) Various (biologically common) divalent metal cations with variable ionic radii were tested in 2.8 ml Deep Well Microplates (VWR International, West Chester, Pa., USA) (“mini-plate-scale”) containing 1 ml suspensions of 25 g of AVICEL® per liter in 50 mM sodium acetate pH 5 at 50° C. Cellulolytic Enzyme Composition #1 was added at 0.25 g per liter for each hydrolysis. The mini-plates were sealed at 160° C. for 2 seconds using an ABGENE® ALPS 300™ sealer (ABgene, Rochester, N.Y., USA). The sealed mini-plates were incubated at 50° C. in an INNOVA® 4080 incubator shaker at 150 rpm. Soluble reducing sugars were measured by HPLC as described in Example 30.
Iron-chelator complexes of variable size or redox property were tested for their ability to inhibit enzymatic hydrolysis of cellulose. […]

The conditions of data set [3]: single-electron oxidation potential of iron-chelator complexes; cited from earlier work.
Data set [4] concerns Cellulolytic Enzyme Composition #2. As to the kind of experiment: mini-plate-scale PCS hydrolysis by Cellulolytic Enzyme Composition #2 with H2O2 and ferric ion chelator. It counts as biochemical, Trichoderma reesei. To be noted: for Effect on the inhibition by ferrous ion: 2.5 mM FeSO4, 10 mM H2O2 for 30 minutes, 10 mM desferrioxamine. The protocol:
However, prior to the addition of Cellulolytic Enzyme Composition #2, the mixture of PCS and FeSO4 was treated with 10 mM H2O2 for 30 minutes. In some cases, 10 mM desferrioxamine was also added. Reactions without the addition of FeSO4 or H2O2 served as controls.

Data set [5] deals with Cellulolytic Enzyme Composition #1. Nature of the data set: Pre-incubation of iron ion with AVICEL or enzyme, then AVICEL hydrolysis. It counts as biochemical, Trichoderma reesei. As to the method:
To test whether Fe(II) affects cellulose or cellulase, 10 mM FeCl2 was pre-incubated with either 25 g of AVICEL® or 0.25 g of Cellulolytic Enzyme Composition #1 per liter of 50 mM sodium acetate pH 5 for three days. “Fe-pretreated” AVICEL® was washed and Cellulolytic Enzyme Composition #1 was gel-filtered using BioSpin 6 desalting columns (Bio-Rad, Hercules, Calif., USA) to remove residual Fe ion. Fe-pretreated AVICEL® was hydrolyzed with fresh Cellulolytic Enzyme Composition #1 or Cellulolytic Enzyme Composition #1 subjected to “FeCl2-less” pre-incubation and gel filtration. Fe-pretreated Cellulolytic Enzyme Composition #1 was applied to hydrolyze fresh AVICEL® or AVICEL® subjected to “FeCl2-less” pre-incubation and washing, in comparison with the hydrolysis of fresh AVICEL® ([…]) by fresh Cellulolytic Enzyme Composition #1 ([…]), with or without 10 mM FeCl2. All hydrolyses were performed using the “mini-plate-scale” hydrolysis reaction procedure described in Example 32, except for the change in cellulose or cellulase described above.
To test whether Fe(III) affected cellulose or cellulase, 10 mM FeCl3 was pre-incubated with either 25 g of AVICEL® or 0.25 g of Cellulolytic Enzyme Composition #1 per liter of 50 mM sodium acetate pH 5 for three days. All hydrolyses were performed using the “mini-plate-scale” hydrolysis reactions according to the procedure described in Example 32, except for the change in cellulose or cellulase described above.

The test system is the same in data set [6]. Nature of the data set: mini-plate-scale PASC hydrolysis by Cellulolytic Enzyme Composition #1. To be noted: 10 mM; 2 g PASC and 0.01 g enzyme per liter. It counts as biochemical, Trichoderma reesei. As to the method: as §2
In one series of “mini-scale” hydrolysis reactions performed according to the procedure described in Example 30, the effect of 1 mM to 10 mM FeSO4 was evaluated in the hydrolysis of AVICEL® by Cellulolytic Enzyme Composition #1. In a series of “mini-plate-scale” hydrolysis reactions performed according to the procedure described in Example 32, the effect of 1 mM to 10 mM FeSO4 was evaluated in the hydrolysis of PASC by Cellulolytic Enzyme Composition #1, except 2 g of PASC and 0.05 g Cellulolytic Enzyme Composition #1 per liter of 50 mM sodium acetate pH 5 were used.
The above study was extended to a range of concentration of Fe(II) and cellulose. In a series of “mini-plate-scale” hydrolysis reactions performed according to the procedure described in Example 32, except that 0.1 to 10 mM FeSO4, 0.6 to 4 g of PASC and 0.01 g of Cellulolytic Enzyme Composition #1 per liter of 50 mM sodium acetate pH 5 were used.

For data set [7] the test system is unchanged. Nature of the data set: Pre-incubation of iron ion with PASC or enzyme, then PASC hydrolysis. It counts as biochemical, Trichoderma reesei. As to the method: The “pre-incubation” study was also performed for the hydrolysis of PASC. The experiments were similar to those described above, except 2 g of PASC, replacing AVICEL®, and 0.01 g of Cellulolytic Enzyme Composition #1 per liter of 50 mM sodium acetate pH 5, and 3 days pre-incubation were used. All hydrolyses were performed using the “mini-plate-scale” hydrolysis reaction according to the procedure described in Example 32, except for the change in cellulose or cellulase described above.

The test system of data set [8] is Cellulolytic Enzyme Composition #2. Nature of the data set: mini-scale PCS hydrolysis by Cellulolytic Enzyme Composition #2. Particulars: 10 mM salt; 43.4 g PCS and 0.25 g enzyme per liter, 50 mM sodium acetate pH 5, 50° C. It counts as biochemical, Trichoderma reesei. The protocol:
Corn stover was pretreated at the U.S. Department of Energy National Renewable Energy Laboratory (NREL), […], Colo., USA, using dilute sulfuric acid. The following conditions were used for the pretreatment: 1.4 wt % sulfuric acid at 195° C. for 4.5 minutes. According to limit digestion with excess cellulase enzymes, the water-insoluble solids in the pretreated corn stover (PCS) contained 59.5% cellulose. Prior to use, the PCS was washed with a large volume of deionized water until soluble acid and sugars were removed. The dry weight of the water-washed PCS was 19.16%.
The effect of various salts (FeSO4, FeCl2, NaCl, Na2SO4, MnSO4, MnCl2) was determined in the hydrolysis of PCS by Cellulolytic Enzyme Composition #2. […] Cellulolytic Enzyme Composition #2 was added at 0.25 g per liter. Reactions without the addition of the salt served as controls. The capped tubes were incubated at 50° C. in an INNOVA® 4080 incubator shaker (New Brunswick Scientific Co., Inc., Edison, N.J., USA) at 150 rpm.
as §1
The degree of cellulose conversion to glucose plus cellobiose (% conversion) was calculated using the following equation:
% Conversion=(glucose+cellobiose×1.053)(mg/ml)×100×162/cellulose(mg/ml)×180)=(glucose+cellobiose×1.053)(mg/ml)×100/(cellulose(mg/ml)×1.111)
In this equation the factor 1.111 reflects the weight gain in converting cellulose to glucose, and the factor 1.053 reflects the weight gain in converting cellobiose to glucose. Cellulose in PCS was determined by a limit digest of PCS to release glucose and cellobiose.

[9] abbreviates: 10 mM fresh salt, fresh AVICEL, fresh enzyme.
[10] abbreviates: 10 mM, pre-incubated three days with AVICEL.
[11] abbreviates: 10 mM, pre-incubated three days with Cellulolytic Enzyme Composition #1.
[12] abbreviates: fresh salt, PASC, enzyme fresh or buffer pre-incubated.
The mark [13] stands for this setting: pre-incubated 3 days with Cellulolytic Enzyme Composition #1.

Molecules are shown by their SMILES.

`c1cnc2c(c1)ccc1ncccc12` [1,7-Phenanthroline]: in data set [1], the “cellobiose level in the hydrolysis products versus absence of the compounds” value is recorded as “about twice” and the “Effect of chelator on enzyme in the absence of FeSO4” value is “essentially benign”.
In the case of `c1cnc2c(c1)ccc1cccnc12` [1,10-phenanthroline], in data set [1], the “cellobiose level in the hydrolysis products versus absence of the compounds” value is on record as “about twice” and the “Effect of chelator on enzyme in the absence of FeSO4” value is recorded as “significant inhibition”.
On to `O=C([O-])CC(O)(CC(=O)[O-])C(=O)[O-].[Fe+3]` [Fe(III)-citrate, Fe-citrate], for which the “Effect on enzymatic cellulolysis: loss in initial rate” value in data set [2] is on record as “No significant change”. The “Effect on enzymatic cellulolysis: loss in extended hydrolysis extent” value in data set [2] (after 4 days) is on record as “no change”. Besides, the “E°” value in data set [3] is −0.191^2 V. In addition, the “Effect on hydrolysis of PCS” value in data set [4] (1 and 10 mM) is reported as “did not affect”.
Consider `[Cl][Fe][Cl]` [FeCl2, ferrous chloride], for which the “loss in extent of hydrolysis” value in data set [5] (setting [9]) is given as approximately 50%; in data set [5] (setting [10]), approximately 10%; in data set [5] (setting [11]) it was approximately 20%; in data set [7] (setting [12]), “no loss”; in data set [7] (setting [13]), “no loss”; in data set [7] (pre-incubated 3 days with PASC), “no loss”. The “loss in initial rate” value is on record as approximately 50% in data set [5] (setting [9]); approximately 10% in data set [5] (setting [10]); approximately 20% in data set [5] (setting [11]); “approximately 30%” in data set [7] (setting [12]); approximately 70% in data set [7] (setting [13]); approximately 60% in data set [7] (pre-incubated 3 days with PASC). Moreover, the “loss of extent of hydrolysis after 4 days” value in data set [6] is approximately 30%. In addition, the “loss of initial hydrolysis rate” value in data set [6] was approximately 30%. Further, the “Effect on PCS hydrolysis” value in data set [8] was “significant inhibition”.
As for `OO` [H2O2, Hydrogen peroxide], in data set [4], the “Effect on the inhibition by ferrous ion” value is “reduced the inhibitory effect”. Also, the “Effect on hydrolysis in the absence of Fe(II)” value in data set [4] (10 mM H2O2 with or without 10 mM desferrioxamine (FIG. 22B)) is reported as “only affected the hydrolysis slightly”.
With `CC(=O)N(O)CCCCCNC(=O)CCC(=O)N(O)CCCCCNC(=O)CCC(=O)N(O)CCCCCN` [desferrioxamine], in data set [4], the “Effect on the inhibition by ferrous ion” value is on record as “mitigated almost all”. The “increase in hydrolysis extent” value in data set [4] (10 mM, alone) was “approximately 2%”.
